Assay results as given in patent US20240132498A1, “CRYSTALLINE FORMS OF 5-(3,4-DIFLUOROBENZYL)-8-((1R,4R)-4-METHYLCYCLOHEXYL)-6,9-DIOXO-2,5,8-TRIAZASPIRO[3.5]NONANE-2-CARBALDEHYDE” (Cytokinetics, Incorporated, priority 2022, published 2024).

Key:
[1] = Mouse single dose pharmacokinetics; assay type: in vivo; conditions: plasma, iv, 0.5 mg/kg, male C57BL/6 mice; for Vd: read-out: Vss
Procedure: Male C57BL/6 mice (18-25 g, 6-8 weeks old) were obtained from Zhejiang Vital River Laboratory Animal Technology Co., Ltd. All animals for IV administration had free access to food and water. The IV dosing was performed through tail vein. The IV dose solution for the Test Articles was prepared in 10% DMA/20% PG/70% HPOCD solution (40% w/v aqueous HPOCD) at a concentration of 0.1 mg/mL. The oral dosing suspension was prepared by suspending Test Article in 0.5% HPMC/0.1% Tween 80 in water at a concentration 0.2 mg/mL. Concentrations of IV and PO doses were measured at the end of the study. Pharmacokinetic (PK) parameters were calculated using the nominal dose values if the measured values were within 20% of the nominal values. A group of 15 mice received the IV dose where the volume was 5 mL/kg. Another group of 15 mice received by oral gavage of Test Article at 1 mg/kg. The oral dose volume was 5 mL/kg. Sparse blood samples were collected from groups of three mice via retro-orbital bleeding, placed into a K2EDTA microtainer tube and maintained on ice until centrifugation to obtain plasma. Each designated group of mice were bled at two-time points. The time points were predose (PO only), 5 (IV only), 15, 30 minutes, 1, 2, 4, 6, 8 and 24 hours postdose. Blood samples were centrifuged and the collected plasma was stored at −80° C. until analysis. Plasma samples were analyzed for Test Article concentrations using an LC/MS/MS method. Briefly, a 50 p L aliquot of each plasma sample was mixed with 100 μL of acetonitrile that contained an internal standard (IS). The mixture was vortexed and centrifuged. Ten (10) p L of the resulting solution was injected onto a reverse-phase C18 column and the resultant peaks detected on a LC/MS/MS equipped with a turbo ionspray ionization source. Sample concentrations below the limit of quantification (BLQ) were treated as zero for PK calculations. Composite PK parameters were estimated from a maximum of two sampling points per mouse and three mice per sampling point and the sparse data option of WinNonlin was used for noncompartmental analysis of the concentration-time data (Phoenix WinNonLin software, version 64; Pharsight, Mountain View, CA). The elimination rate constant (k) was calculated as the absolute value of the slope of the linear regression of logarithm of the concentration versus time for the last three data points of the concentration-time profiles. Apparent elimination half-life (t½) values were calculated as 1n(2)/k. Area under the concentration-time curve (AUC) values were estimated using linear trapezoidal method. AUC values were calculated from the dosing time to the last measurable concentration. AUC∞ values were calculated as the sum of the corresponding AUC and the ratio of the last detectable concentration divided by k. Plasma clearance (CL) was calculated from Dose/AUC. Mean resident time (MRT) was estimated by moment analysis. Volume of distribution at steady state (Vss) was calculated from MRT∞×CL. Maximum concentration (Cmax) and time to reach Cmax (tmax) were recorded as observed. Bioavailability was calculated dAUC∞,po/dAU∞.iv×100% where dAUC was the dose normalized AUC value. Compounds tested were prepared in accordance with the synthetic procedures described herein.

CYP3A4 [2] = target: T1, CYP3A4 (Homo sapiens, UniProt P08684); assay: Time-dependent inhibition of CYP450 enzymes in human liver microsomes: CYP3A4-M (midazolam probe); assay type: in vitro ADME; conditions: human, pooled human liver microsomes, CYP3A4-M (midazolam probe); for activity at 30 min, 25 µM / activity at 30 min, 50 µM: 30 minutes incubation, read-out: % Activity NADPH T30; for activity at 0 min, 25 µM / activity at 0 min, 50 µM: time zero, read-out: % Activity NADPH T0
T1 construct: from tissue; host or cells: pooled human liver microsomes
T1 sequence (P08684 whole entry): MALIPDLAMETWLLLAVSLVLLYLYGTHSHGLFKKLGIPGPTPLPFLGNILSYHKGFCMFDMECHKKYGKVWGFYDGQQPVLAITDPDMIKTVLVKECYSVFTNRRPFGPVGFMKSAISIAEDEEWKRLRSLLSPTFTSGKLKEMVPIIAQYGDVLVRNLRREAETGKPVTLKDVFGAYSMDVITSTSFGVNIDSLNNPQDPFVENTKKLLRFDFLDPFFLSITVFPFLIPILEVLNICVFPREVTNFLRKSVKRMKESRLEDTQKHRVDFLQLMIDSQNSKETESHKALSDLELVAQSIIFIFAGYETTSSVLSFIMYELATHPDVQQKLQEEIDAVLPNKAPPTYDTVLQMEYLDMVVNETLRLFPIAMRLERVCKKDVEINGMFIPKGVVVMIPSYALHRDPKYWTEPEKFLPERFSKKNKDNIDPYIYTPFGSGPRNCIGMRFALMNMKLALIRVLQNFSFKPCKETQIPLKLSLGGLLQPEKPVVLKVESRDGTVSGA
Procedure: (§1) An assessment of the time-dependent Inhibitory Potential of the test compounds against Principal Human Cytochrome P450 Isozymes using Human Liver Microsomes was also carried out using standard methods (Grimm et al, Drug Metab. Dispos., Jul; 37(7):1355-70. doi: 10.1124/dmd.109.026716, 2009). Pooled human microsomes and selective CYP probe substrates were used for in vitro assessment of test compounds at 25 and 50 μM as time-dependent inhibitors of […] human hepatic cytochrome P450 isozymes (CYP1A2, 2B6, 2C9, 2C19, 2D6, and 3A4). LC-MS/MS was used to quantify metabolite formation. The inhibition of each P450 enzyme in human liver microsomes was measured as the percentage decrease in the activity of marker metabolite formation as measured by LC-MS/MS compared to non-inhibited controls (=100% activity) at time zero and after 30 minutes incubation. The occurrence of any time dependent inhibition was then expressed as the fold change in enzyme activity at time zero relative to the activity after 30 minutes incubation. The time dependent inhibition for the compound 5-(3,4-difluorobenzyl)-8-((1 r,4r)-4-methylcyclohexyl)-6,9-dioxo-2,5, 8-triazaspiro [3.5]nonane-2-carbaldehyde (Compound 1) against CYP1A2, […], CYP2C8, CYP2C9, CYP2C19, CYP2D6, CYP3A4-M and CYP3A4-T is shown in Table B-12.

CYP3A4-M = target: T2, CYP3A4-M (Homo sapiens, UniProt P08684); assay: as above; assay type: in vitro ADME; conditions: for (% Activity NADPH T0)/(% Activity NADPH T30): CYP3A4-M (midazolam probe); for fold change in enzyme activity (time dependent inhibition), 3A4: human liver microsomes, midazolam probe, time zero vs 30 minutes incubation, 25 and 50 μM
T2 construct: from tissue; host or cells: pooled human liver microsomes
T2 sequence (P08684 whole entry): as above
Procedure: as §1

CYP3A4 [3] = target: T1, CYP3A4; assay: Time-dependent inhibition of CYP450 enzymes in human liver microsomes: CYP3A4-T (testosterone probe); assay type: in vitro ADME; conditions: human, pooled human liver microsomes, CYP3A4-T (testosterone probe); for activity at 30 min, 25 µM / activity at 30 min, 50 µM: 30 minutes incubation, read-out: % Activity NADPH T30; for activity at 0 min, 25 µM / activity at 0 min, 50 µM: time zero, read-out: % Activity NADPH T0
Procedure: as §1

CYP3A4-T = target: T3, CYP3A4-T (Homo sapiens, UniProt P08684); assay: as above; assay type: in vitro ADME; conditions: for (% Activity NADPH T0)/(% Activity NADPH T30): CYP3A4-T (testosterone probe); for fold change in enzyme activity (time dependent inhibition), 3A4: human liver microsomes, testosterone probe, time zero vs 30 minutes incubation, 25 and 50 μM
T3 construct: from tissue; host or cells: pooled human liver microsomes
T3 sequence (P08684 whole entry): as above
Procedure: as §1

| clearance [1] [mL/min/kg] | half-life [1] [h] | Vd [1] [L/kg] | activity at 30 min, 25 µM (CYP3A4 [2]) [%] | activity at 0 min, 25 µM (CYP3A4 [2]) [%] | activity at 30 min, 50 µM (CYP3A4 [2]) [%] | activity at 0 min, 50 µM (CYP3A4 [2]) [%] | (% Activity NADPH T0)/(% Activity NADPH T30) (CYP3A4-M; 25 μM) | (% Activity NADPH T0)/(% Activity NADPH T30) (CYP3A4-M; 50 μM) | fold change in enzyme activity (time dependent inhibition), 3A4 (CYP3A4-M) [fold] | activity at 30 min, 25 µM (CYP3A4 [3]) [%] | activity at 0 min, 25 µM (CYP3A4 [3]) [%] | activity at 30 min, 50 µM (CYP3A4 [3]) [%] | activity at 0 min, 50 µM (CYP3A4 [3]) [%] | (% Activity NADPH T0)/(% Activity NADPH T30) (CYP3A4-T; 25 μM) | (% Activity NADPH T0)/(% Activity NADPH T30) (CYP3A4-T; 50 μM) | fold change in enzyme activity (time dependent inhibition), 3A4 (CYP3A4-T) [fold] | SMILES |
| --- | --- | --- | --- | --- | --- | --- | --- | --- | --- | --- | --- | --- | --- | --- | --- | --- | --- |
| 4.67 | 2.6 | 1.39 | 48 | 75 | 33 | 57 | 1.6 | 1.7 | > 1.5 | 23 | 41 | 19 | 35 | 1.8 | 1.8 | > 1.5 | O=C1[C@H](C2COC2)N(Cc2ccc(C(F)(F)F)cc2)C(=O)CN1c1ncc(Cl)cc1F [Comparator C, (S)-1-(5-chloro-3-fluoropyridin-2-yl)-3-(oxetan-3-yl)-4-(4-(trifluoromethyl)benzyl)piperazine-2,5-dione, reference compound] |
| 11.6 | 2.8 | 3.28 | – | – | – | – | – | – | – | – | – | – | – | – | – | – | O=CN1CC2(C1)C(=O)N([C@H]1CC[C@H](C(F)F)CC1)CC(=O)N2Cc1ccc(C(F)(F)F)cc1 [Comparator E, 8-((1r,4r)-4-(difluoromethyl)cyclohexyl)-6,9-dioxo-5-(4-(trifluoromethyl)benzyl)-2,5,8-triazaspiro[3.5]nonane-2-carbaldehyde] |
| 28.4 | 1.77 | 4.2 | 88 | 70 | 78 | 57 | 0.8 | 0.7 | ≤ 1.2 | 90 | 80 | 98 | 83 | 0.9 | 0.8 | ≤ 1.2 | C[C@H]1CC[C@H](N2CC(=O)N(Cc3ccc(F)c(F)c3)C3(CN(C=O)C3)C2=O)CC1 [Compound 1, 5-(3,4-difluorobenzyl)-8-((1r,4r)-4-methylcyclohexyl)-6,9-dioxo-2,5,8-triazaspiro[3.5]nonane-2-carbaldehyde] |
